# According to PMC10630452, “The tumor-enriched small molecule gambogic amide suppresses glioma by targeting WDR1-dependent cytoskeleton remodeling” (Signal Transduction and Targeted Therapy, 2023):
# How the values were obtained:
# F-actin = F-actin staining and G-actin/F-actin assay in T2-4 cells; assay type: cell-based; conditions: 0.3 μM, 4 h, 8 h and 12 h
# Protocol: F-actin isolation was performed according to the instructions of the G-actin/F-actin assay (Cytoskeleton, Inc.). Briefly, cells were lysed in LAS2 buffer (Cytoskeleton, Inc.). The lysates were centrifuged (5 min at 1000 rpm) to pellet undisrupted cells, and then 100 µl of the supernatant was ultracentrifuged at 37 °C (100,000 × g) for 1 h to separate F-actin from soluble G-actin. The F-actin pellet was solubilized by incubation in 100 μL of F-actin depolymerization buffer for 1 h. The soluble F-actin and G-actin fractions were subsequently analyzed by immunoblotting with a mouse monoclonal anti-actin antibody (Cytoskeleton, Inc.).
# Representative images of three wells are shown, and the scale bar represents 500 μm. h The apoptosis assay was conducted on T2-4 cells treated with DMSO, GA-amide (0.3 μM), jas (50 nM), and jas (50 nM jas was pretreated for 12 hours) in combination with GA-amide (0.3 μM) for 4 hours. The data were presented as the mean ± SEM (n = 3) and analyzed using one-way ANOVA analysis. Statistical significance is denoted as *P <0.05, **P <0.01, and ***P <0.001.
# [1] = test system: WDR1 knockout T2-4 and T12-1 cells; assay: Cell viability of WDR1 knockout PDCs; assay type: cell-based, human; conditions: WDR1 knockout T2-4 and T12-1 versus sg-NC
# Protocol: The data are representative of 3 wells, scale bar: 500 μm. j Statistical results of the recovery of invasion.
# For cell transfection, we first inserted the full-length cDNA encoding WDR1 and the WDR1 sequence with mutation of the four interaction sites into pcDNA3.1. Then, 293T cells were transiently transfected with these plasmids using Lipofectamine 3000 (Invitrogen). For cell transduction, WDR1 knockout and WDR1-overexpressing PDCs were generated by lentiviral transduction and selected by 1 µg/mL puromycin. All sg-WDR1 sequences are listed as follows: sg-WDR1 #2: 5′-[…]-3′, sg-WDR1 #3: 5′-[…]-3′, sg-WDR1 #4: 5′-[…]-3′, sg-WDR1 #5: 5′-[…]-3′. For cell transduction, CFL1 or MYH9 knockdown PDCs were generated by lentiviral transduction and selected by 1 µg/mL puromycin. All shRNA sequences are listed as follows: shCFL1-1: […], shCFL1-2: […], shMYH9-1: GCAAACCTCGAGAAGGCAA, shMYH9-2: GAAGTCAGCTCCCTAAAGA.
# [2] = Acute toxicity assay, body weight; assay type: in vivo, mice; conditions: low dose 1 mg/kg, high dose 10 mg/kg, one-time i.v.
# Protocol: a Hematoxylin and eosin staining of sections from control and GA-amide-treated livers, kidney and small intestines, scale bars were shown in the panel. b Persistent records of the body weights and the statistical results of the body weight changes after one-time i.v. treatments of control (DMSO), 1 mg/kg GA-amide and 10 mg/kg GA-amide (n = 6, for control and 1mg/kg GA-amide; n = 5, for 10mg/kg GA-amide) were shown.
compound,measurement,setting,value
"CC(C)=CCC[C@]1(C)C=Cc2c(O)c3c(c(CC=C(C)C)c2O1)O[C@]12C(=C[C@@H]4CC1C(C)(C)O[C@@]2(C/C=C(/C)C(N)=O)C4=O)C3=O [GA-amide, gambogic amide]",F-actin content,F-actin,decreased content of F-actin at the cell edge
same,suppression of cell proliferation in WDR1 knockout cells,[1],decreased suppressive effects of GA-amide on cell proliferation
same,body weight after a single injection,[2],did not change the body weight
